Patent US20190299005A1, “VAGUS NERVE STIMULATION AND MONITORING” (priority 2018, published 2019)
“Also recorded” adds a separate entry of the source. Where a name gives a salt, the structure may show the parent alone.

Experiments:
[1] = test system: individual single vagal fibers (mesenteric nerve bundle of jejunal segment); assay: Ex vivo vagal nerve fiber recording from mice orally fed antidepressants, lumen perfused with buffer only; design: species or system BALB/c mice; conditions: fed in the drinking water for 14 days; fluoxetine 18, sertraline 6, bupropion 6 mg/kg per day
Method: The procedure described above in connection with Example 1 and 2 was repeated for the BALB/c mice orally fed with antidepressants fluoxetine (18 mg/kg per day), sertraline (6 mg/kg per day) and bupropion (WELLBUTRIN®) (6 mg/kg per day) in the drinking water for 14 days. Following the oral treatment, the mice were sacrificed and a jejunal segment with mesenteric tissue was recovered as described in Example 1. In this example, the lumens of the jejunal segments were, however, perfused only with KREPS buffer.
FIG. 16 illustrates the mean interval between spike firing, i.e., average inter-pulse durations, for luminal Krebs control, i.e., from control mice that have not been treated with any antidepressants, and for mice fed with fluoxetine, sertraline or bupropion (WELLBUTRIN®).

[2] = test system: individual single vagal fibers (mesenteric nerve bundle of jejunal segment); assay: Ex vivo vagal nerve fiber recording, test substance in lumen of jejunal segment, post hoc single unit burst analysis; design: species or system BALB/c mice; conditions: for Average inter-pulse duration, lower 95% CI / Average inter-pulse duration, upper 95% CI / Burst duration, lower 95% CI / Burst duration, upper 95% CI / Inter-burst duration, lower 95% CI / Inter-burst duration, upper 95% CI / Inter-pulse duration within bursts, lower 95% CI / Inter-pulse duration within bursts, upper 95% CI: drug in lumen; for Fraction average inter-pulse duration / Fraction burst duration / Fraction inter-burst duration / Fraction inter-pulse duration within bursts: fractional change (treatment−control)/control; for Fraction average inter-pulse duration: luminal fluoxetine 30 μM, sertraline 10 μM, bupropion 10 μM, JB-1 10^9 cfu/mL, squalamine 10 μM; for Fraction burst duration / Fraction inter-burst duration / Fraction inter-pulse duration within bursts: same luminal concentrations
Method: Adult BALB/c mice were killed by cervical dislocation. Then a 2-3 cm long jejunal segment with attached mesenteric tissue was removed and the oral and anal ends of the jejunal segment were cannulated with plastic tubing, gently emptied of contents by perfusing the lumen with Krebs buffer using a 3 mL plastic syringe whose tip was inserted into the oral opening. The cleaned jejunal segment was placed into a polystyrene petri dish (Falcon 351006, 50 mm×9 mm, Corning, N.Y., USA) filled with Krebs buffer of the following composition (in mM): 118 NaCl, 4.8 KCl, 25 NaHCO3, 1.0 NaH2PO4, 1.2 MgSO4, 11.1 glucose, and 2.5 CaCl2) bubbled with carbogen (95% 02 and 5% 002). The bottom of the dish was previously lined 1-2 mm deep with cured silicone elastomer SYLGARD®, Dow Corning, MI, USA.
Next the mesenteric nerve bundle was isolated by careful dissection under a stereomicroscope (Leika) using pointed number 5 forceps (Fine Science Tools), and the dish and contents were transferred to an inverted microscope (Nikon).
The gut segment and attached mesenteric tissue was then pinned linearly, without stretching, from oral to anal in the dish by pushing fine insect pins through the adherent mesentery into the silicone elastomer SYLGARD®. The lumen was gravity perfused (1 ml/min) at room temperature (20-25° C.), with oxygenated Krebs buffer and using several Mariotti bottles (McCarthy, Science 80: 100, 1934) attached to a plastic manifold (World Precision Instruments, Sarasota, Fla., USA). The serosal compartment was separately perfused with pre-warmed (35° C.) Krebs buffer at 4 ml/min. 3 μM nicardipine hydrochloride was added to the latter Krebs buffer to paralyze the smooth muscle to isolate chemosensory afferent signals from motility-related vagal responses (Perez-Burgos et al., Am J Physiol Gastrointest Liver Physiol 304: G211-220, 2013).
The nerve bundle was gently sucked onto a glass pipette attached to a patch-clamp electrode holder (CV-7B; Molecular Devices, Sunnyvale, Calif.), and extracellular nerve recordings were performed using a Multi-Clamp 700B amplifier and Digidata 1440A signal converter (Molecular Devices). Electrical signals were bandpass-filtered at 0.1-2 kHz, sampled at 20 kHz, and stored on a personal computer running pClamp 10 software (Molecular Devices) for post hoc analysis. Constitutive multiunit electrical activity was always recorded from the mesenteric nerve bundle even when the lumen was perfused with only Krebs buffer. Baseline recordings with Krebs buffer in the lumen were performed for 15 min, after which the luminal perfusate was switched to one containing Krebs buffer with substances to be tested (fluoxetine 30 μM, sertraline 10 μM, bupropion (WELLBUTRIN®) 10 μM, Lactobacillus rhamnosus JB-1 10^9 cfu/mL, or squalamine 10 μM). Recording in the presence of test substances was performed for up to 40 min after which the luminal perfusate was again switched to Krebs buffer and recording continued for up to 30 min.
Single units representing discharge from individual single vagal fibers were discriminated and identified by their unique spike waveform shape and amplitude (Rong et al., J Physiol 560: 867-881, 2004) using Dataview computer software (Heitler, Journal of Undergraduate Neuroscience Education 6: A1-A7, 2007). Dataview uses principal component analysis to sort the recorded multiunit spikes into individual single unit categories according to shape and amplitude (Heitler, Journal of Neuroscience Methods 185: 151-164, 2009).
Control and treatment periods were identified from event markers inserted at the time of recording. Then, for each channel (color-coded unit), spike bursts were detected using the “Poisson surprise” method devised by Legéndy & Salcman (Legendy & Salcman, J Neurophysiol 53: 926-939, 1985). A surprise was defined as −log 10(p), where p is the probability of a set of events occurring this close together by chance. […]

[3] = test system: BALB/c mice (depressive-like behavior); assay: Tail Suspension Test (TST) after oral treatment, intact and vagotomized mice; format: in vivo; conditions: for effect on depressive and anxiety behavior in vagotomized mice: sub-diaphragmatic vagotomy prior to oral administration; for dependency of the effect on the vagus nerve: vagotomized mice compared to mice with an intact vagus nerve; for depressive and anxiety behavior in mice: oral administration, intact vagus nerve
Method: BALB/c mice were orally fed antidepressants fluoxetine (18 mg/kg per day), sertraline (6 mg/kg per day) and bupropion (WELLBUTRIN®) (6 mg/kg per day) in the drinking water for 14 days, or JB-1 (2.5-4×10^9 bacteria/day) in the drinking water for 28 days.
1 day following oral treatments with the antidepressants, the BALB/c mice were tested for depressive-like behavior with the tail suspension test. Mice were removed from the colony room and moved to a behavioral testing room where they were allowed to habituate for 30 min. Following this period, mice were suspended by the tail using laboratory tape measured to 17 cm (Can et al., Journal of Visualized Experiments 59: e3769, 2012) from a suspension bar in a position whereby they could not escape or hold on to any surfaces. 2 cm of tape was affixed to the mouse tail with the remaining 15 cm used for suspension of the mouse. Animals were left suspended for a period of 6 mins. Animal behavior was video recorded and scored by a blinded observer for freezing behavior. Freezing was calculated as a percentage of total time. Following behavioral testing mice were returned to the housing room and resumed oral treatments for the duration of the study.
The Tail Suspension Test is a simple screening test for the behavioral effects of antianxiety agents and antidepressants in rodents. This test assesses the inter-individual differences in responses to stressful situations measured by duration of immobility.

vagal afferent = conditions: aged mice with reduced firing frequency; cited from earlier work
colonic motility = conditions: applied intraluminally in mice; cited from earlier work
[4] = test system: patients with Parkinson's disease (PD) and severe constipation; conditions: cited from earlier work

Compound	Average inter-pulse duration, lower 95% CI [2] [ms]	Average inter-pulse duration, upper 95% CI [2] [ms]	Burst duration, lower 95% CI [2] [ms]	Burst duration, upper 95% CI [2] [ms]	Inter-burst duration, lower 95% CI [2] [ms]	Inter-burst duration, upper 95% CI [2] [ms]	Inter-pulse duration within bursts, lower 95% CI [2] [ms]	Inter-pulse duration within bursts, upper 95% CI [2] [ms]	Fraction average inter-pulse duration [2]	Fraction burst duration [2]	Fraction inter-burst duration [2]	Fraction inter-pulse duration within bursts [2]	effect on depressive and anxiety behavior in vagotomized mice [3]	dependency of the effect on the vagus nerve [3]	depressive and anxiety behavior in mice [3]	further results
CC(NC(C)(C)C)C(=O)c1cccc(Cl)c1 (stereo not drawn) [Bupropion, bupropion]	896	1081	412	543	49779	66105	105	124	0.2919	0.1778	1.152	0.01576	present	not to be dependent on the vagus nerve	–	average inter-pulse durations as compared to control mice [1]: no difference
CNCCC(Oc1ccc(C(F)(F)F)cc1)c1ccccc1 (stereo not drawn) [Fluoxetine, fluoxetine]	612	983	510	771	11524	44175	101	138	−0.3964	0.6424	−0.1795	0.2705	disappeared; also recorded: no effect	dependent on the vagus nerve	decreased	Inter-burst duration, lower 95% CI ([2]; listed as fluoxetine): 11 524 ms; Inter-burst duration, upper 95% CI ([2]; listed as fluoxetine): 44 175 ms
CN[C@H]1CC[C@@H](c2ccc(Cl)c(Cl)c2)c2ccccc21 [Sertraline, sertraline]	386	614	516	676	16160	36270	87	110	−0.1627	0.6184	−0.1554	0.1936	disappeared	dependent on the vagus nerve; also recorded: same dependency of action	decreased	Inter-burst duration, lower 95% CI ([2]; listed as sertraline): 16 160 ms; Inter-burst duration, upper 95% CI ([2]; listed as sertraline): 36 270 ms
CC(C)[C@@H](CC[C@@H](C)[C@H]1CC[C@H]2[C@@H]3[C@H](O)C[C@H]4C[C@@H](NCCCNCCCCN)CC[C@]4(C)[C@H]3CC[C@]12C)OS(=O)(=O)O [Squalamine, 3(3β,5α,7α,24R)-3-({3-[(4-aminobutyl)amino]propyl}amino)-7-hydroxycholestan-24-yl hydrogen sulfate]	334	675	111	1954	11233	34229	98	136	−0.183	0.6752	−0.2957	0.1394	–	–	–	vagal afferent firing frequency (vagal afferent): increases; age and loperamide-related dysmotility (colonic motility): reversed; effects on colonic motility (colonic motility): prokinetic effects; Burst duration, lower 95% CI ([2]; listed as squalamine): 110 ms; Burst duration, upper 95% CI ([2]; listed as squalamine): 1 954 ms; Inter-burst duration, lower 95% CI ([2]; listed as squalamine): 11 233 ms; Inter-burst duration, upper 95% CI ([2]; listed as squalamine): 34 229 ms; Inter-pulse duration within bursts, upper 95% CI ([2]; listed as squalamine): 136 ms; vagus code compared with other antidepressants ([2]; squalamine 10 μM in lumen): almost identical vagus code as sertraline; relief of constipation ([4]; increasing dosage schedule, 50 patients): positive beneficial effects; neurological symptoms in PD patients like hallucinations, sleep and circadian rhythm disturbances ([4]; while patients were taking the drug): attenuated or prevented
